From BindingDB's records for patent US20250313563 (The Broad Institute, 2025)
Values joined by “and” are separate entries in the source; they are usually repeats but may differ in a detail not shown here. Equal values may be shown once.

Tests used:
[1] = molecular target: Glycogen synthase kinase-3 beta (Homo sapiens, UniProt P49841); test: TR-FRET Assay
How it was run: (§1)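 TR-FRET readout: streptavidin-d2 (40 nM in added detection mix) plus Tb-anti-pSer641 Ab (2 nM in mix). Steps were 30 min compound preincubation, kinase reaction, then EDTA stop.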

[2] = molecular target: Glycogen synthase kinase-3 alpha (Homo sapiens, UniProt P49840); test: TR-FRET Assay
Chain of Glycogen synthase kinase-3 alpha (P49840 whole entry): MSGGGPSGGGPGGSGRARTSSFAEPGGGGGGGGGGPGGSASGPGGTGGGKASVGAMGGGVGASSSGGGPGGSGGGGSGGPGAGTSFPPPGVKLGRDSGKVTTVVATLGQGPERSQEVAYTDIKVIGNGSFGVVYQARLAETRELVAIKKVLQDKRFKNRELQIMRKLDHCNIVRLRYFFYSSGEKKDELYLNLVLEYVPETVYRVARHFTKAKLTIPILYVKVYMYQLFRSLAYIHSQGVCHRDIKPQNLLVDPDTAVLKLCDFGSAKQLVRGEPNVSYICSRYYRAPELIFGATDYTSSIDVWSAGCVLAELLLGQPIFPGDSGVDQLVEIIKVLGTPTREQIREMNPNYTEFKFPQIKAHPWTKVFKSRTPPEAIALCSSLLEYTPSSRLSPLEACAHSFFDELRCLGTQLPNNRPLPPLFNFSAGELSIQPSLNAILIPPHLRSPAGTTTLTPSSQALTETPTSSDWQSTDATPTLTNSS
How it was run: as §1

Chain of Glycogen synthase kinase-3 beta (P49841 whole entry): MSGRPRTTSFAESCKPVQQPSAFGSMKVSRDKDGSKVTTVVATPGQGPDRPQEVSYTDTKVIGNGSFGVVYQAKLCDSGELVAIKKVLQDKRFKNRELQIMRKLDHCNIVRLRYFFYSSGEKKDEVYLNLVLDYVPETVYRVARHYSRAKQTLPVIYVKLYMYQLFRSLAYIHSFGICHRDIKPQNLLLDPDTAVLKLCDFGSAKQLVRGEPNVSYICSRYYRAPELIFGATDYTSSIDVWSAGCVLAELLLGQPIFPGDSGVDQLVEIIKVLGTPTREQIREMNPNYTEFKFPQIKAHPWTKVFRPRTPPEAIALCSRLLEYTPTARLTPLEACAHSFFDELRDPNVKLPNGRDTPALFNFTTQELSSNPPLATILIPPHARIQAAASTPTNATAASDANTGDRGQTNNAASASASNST

SMILES	IC50 [1]	IC50 [2]
CC1(C)CC(=O)C2=C(C1)NC1=C(CN=N1)[C@]21CCC[C@@H](C#N)C1 [US20250313563, Compound 946080]	1000 to 5000 nM	1000 to 5000 nM
CC1(C)CC(=O)C2=C(NC3=C(CN=N3)[C@]23CC[C@@H](C(F)(F)F)CC3)[C@@H]1F [US20250313563, Compound 918284]	< 100 nM	< 100 nM
CC1(C)CC(=O)C2=C(C1)NC1=C(CN=N1)C21CCN(S(=O)(=O)c2cnn3c2CCCC3)CC1 [US20250313563, Compound 947474]	< 100 nM	< 100 nM
Cn1ccc(S(=O)(=O)N2CCC3(CC2)C2=C(N=NC2)NC2=C3C(=O)CC(C)(C)C2)n1 [US20250313563, Compound 901471]	< 100 nM and 1000 to 5000 nM	< 100 nM and 100 to 1000 nM
CC1(C)CC(=O)C2=C(C1)NC1=C(CN=N1)C21CC(C)(C)C1 [US20250313563, Compound 883864]	100 to 1000 nM	< 100 nM
CCOc1ccc(S(=O)(=O)N2CCC3(CC2)C2=C(N=NC2)NC2=C3C(=O)CC(C)(C)C2)cc1 [US20250313563, Compound 945670]	< 100 nM and 1000 to 5000 nM	< 100 nM and 100 to 1000 nM
COc1cccc(S(=O)(=O)N2CCC3(CC2)C2=C(N=NC2)NC2=C3C(=O)CC(C)(C)C2)c1F [US20250313563, Compound 945656]	< 100 nM and 100 to 1000 nM	< 100 nM
CC[C@]1(c2cccc(-c3cnn(-c4ccccc4)c3F)c2)C2=CN=NC2NC2=C1C(=O)NC(C)(C)C2 (stereo partly specified) [US20250313563, Compound 949519]	> 5000 nM	> 5000 nM

The next lines start with the values.

IC50 [1]	IC50 [2]	SMILES
1000 to 5000 nM	100 to 1000 nM	CC(=O)N1CC[C@@]2(C1)C1=C(N=NC1)NC1=C2C(=O)CC(C)(C)C1 [US20250313563, Compound 889584]
< 100 nM and 100 to 1000 nM	< 100 nM	CC1(C)CC(=O)C2=C(C1)NC1=C(CN=N1)C21CCN(S(=O)(=O)c2ccccc2F)CC1 [US20250313563, Compound 901465]
1000 to 5000 nM	< 100 nM	CCC1(c2cccc(-c3cc(C)nn3C)c2)C2=C(N=NC2)NC2=C1C(=O)NC(C)(C)C2 (stereo unspecified) [US20250313563, Compound 943371]
< 100 nM	< 100 nM	CC[C@@]1(c2cccc(-c3cnn(CCOC)c3)c2)C2=C(CC(C)(C)CC2=O)NC2N=NC(C)=C21 (stereo partly specified) [US20250313563, Compound 913027]
< 100 nM	< 100 nM	CCC1(c2cccc(C3=CN=NC3)c2)C2=C(CC(C)(C)NC2=O)NC2N=NC(C(F)(F)F)=C21 (stereo unspecified) [US20250313563, Compound 947677]
< 100 nM and 100 to 1000 nM	< 100 nM	CC[C@@]1(c2cccc(-c3c(F)cncc3OC)c2)C2=CN=NC2NC2=C1C(=O)NC(C)(C)C2 (stereo partly specified) [US20250313563, Compound 948150]
< 100 nM	< 100 nM	CCC1(c2cccc(N3CCOc4ccccc43)c2)C2=CN=NC2NC2=C1C(=O)CC(C)(C)C2 (stereo unspecified) [US20250313563, Compound 918280]
1000 to 5000 nM	100 to 1000 nM	CC[C@]1(c2cccc(Br)c2)C2=CN=NC2NC2=C1C(=O)CC(C)(C)C2 (stereo partly specified) [US20250313563, Compound 790733]
> 5000 nM	1000 to 5000 nM	CCC1(c2cccc(CNC)c2)C2=CN=NC2NC2=C1C(=O)CC(C)(C)C2 (stereo unspecified) [US20250313563, Compound 826651]
< 100 nM and 100 to 1000 nM	< 100 nM	CC[C@@]1(c2cccc(-c3cnn(C)c3)c2)C2=C(CC(C)(C)NC2=O)NC2N=NC(C(F)F)=C21 (stereo partly specified) [US20250313563, Compound 949919]
